The source made the active and inactive calls. No cut-off for these calls is given here. Numbered stars: 1 amine (or outer) side, 2 acyl side, 3 side chain; on linkers, the order of the positions; unused ones are H or OH. Peptide text beside a SMILES is read from it. Trp(6-Br) = N[C@@H](Cc1c[nH]c2cc(Br)ccc12)C(=O)O; CO = O=C([*:1])[*:2]
Tests used:
RAW264.7 [1] = assay: Cytotoxicity against mouse RAW264.7 cells assessed as inhibition of cell proliferation at 20 uM incubated for 24 hrs by CCK8 assay; assay type: functional, cell-based
TE-1 = assay: Cytotoxicity against human TE-1 cells assessed as inhibition of cell proliferation at 20 uM incubated for 24 hrs by CCK8 assay; assay type: functional, cell-based
Staphylococcus aureus = assay: Antibacterial activity against Staphylococcus aureus ATCC 29213 at 1 mM at 20 uM incubated for 16 hrs by disk diffusion method; assay type: functional, organism-based
Bacillus subtilis = assay: Antibacterial activity against Bacillus subtilis ATCC 6633 at 1 mM at 20 uM incubated for 16 hrs by disk diffusion method; assay type: functional, organism-based
MCF7 = assay: Cytotoxicity against human MCF7 cells assessed as inhibition of cell proliferation at 20 uM incubated for 24 hrs by CCK8 assay; assay type: functional, cell-based
5637 = assay: Cytotoxicity against human 5637 cells assessed as inhibition of cell proliferation at 20 uM incubated for 24 hrs by CCK8 assay; assay type: functional, cell-based
Escherichia coli = assay: Antibacterial activity against Escherichia coli CGMCC 44102 at 1 mM at 20 uM incubated for 16 hrs by disk diffusion method; assay type: functional, organism-based
CAL-62 = assay: Cytotoxicity against human CAL-62 cells assessed as inhibition of cell proliferation at 20 uM incubated for 24 hrs by CCK8 assay; assay type: functional, cell-based
A-375 = assay: Cytotoxicity against human A-375 cells assessed as inhibition of cell proliferation at 20 uM incubated for 24 hrs by CCK8 assay; assay type: functional, cell-based
DU-145 = assay: Cytotoxicity against human DU-145 cells assessed as inhibition of cell proliferation at 20 uM incubated for 24 hrs by CCK8 assay; assay type: functional, cell-based
HeLa = assay: Cytotoxicity against human HeLa cells assessed as inhibition of cell proliferation at 20 uM incubated for 24 hrs by CCK8 assay; assay type: functional, cell-based
A673 = assay: Cytotoxicity against human A673 cells assessed as inhibition of cell proliferation at 20 uM incubated for 24 hrs by CCK8 assay; assay type: functional, cell-based
786-0 = assay: Cytotoxicity against human 786-0 cells assessed as inhibition of cell proliferation at 20 uM incubated for 24 hrs by CCK8 assay; assay type: functional, cell-based
HOS = assay: Cytotoxicity against human HOS cells assessed as inhibition of cell proliferation at 20 uM incubated for 24 hrs by CCK8 assay; assay type: functional, cell-based
L02 = assay: Cytotoxicity against human L02 cells assessed as inhibition of cell proliferation at 20 uM incubated for 24 hrs by CCK8 assay; assay type: toxicity, cell-based; conditions: l02, 24 h
GBC-SD = assay: Cytotoxicity against human GBC-SD cells assessed as inhibition of cell proliferation at 20 uM incubated for 24 hrs by CCK8 assay; assay type: functional, cell-based
RAW264.7 [2] = assay: Anti-inflammatory activity against mouse RAW264.7 cells at 20 uM pretreated for 30 mins followed by LPS treatment for 24 hrs by Griess assay; assay type: functional, cell-based; conditions: time 24.5 hrs
PaTu 8988t = assay: Cytotoxicity against human PaTu 8988t cells assessed as inhibition of cell proliferation at 20 uM incubated for 24 hrs by CCK8 assay; assay type: functional, cell-based
HCT-116 = assay: Cytotoxicity against human HCT-116 cells assessed as inhibition of cell proliferation at 20 uM incubated for 24 hrs by CCK8 assay; assay type: functional, cell-based
A549 = assay: Cytotoxicity against human A549 cells assessed as inhibition of cell proliferation at 20 uM incubated for 24 hrs by CCK8 assay; assay type: functional, cell-based
MKN-45 = assay: Cytotoxicity against human MKN-45 cells assessed as inhibition of cell proliferation at 20 uM incubated for 24 hrs by CCK8 assay; assay type: functional, cell-based
K562 = assay: Cytotoxicity against human K562 cells assessed as inhibition of cell proliferation at 20 uM incubated for 24 hrs by CCK8 assay; assay type: functional, cell-based
SF-126 = assay: Cytotoxicity against human SF-126 cells assessed as inhibition of cell proliferation at 20 uM incubated for 24 hrs by CCK8 assay; assay type: functional, cell-based
HepG2 = assay: Cytotoxicity against human HepG2 cells assessed as inhibition of cell proliferation at 20 uM incubated for 24 hrs by CCK8 assay; assay type: functional, cell-based

COC(=O)[C@@H](NC(=O)[C@H](Cc1c[nH]c2ccccc12)NC(=O)[C@H](Cc1c[nH]c2ccccc12)NC(=O)[C@@H](NC(=O)N[C@@H](Cc1c[nH]c2cc(Br)ccc12)C(=O)O)[C@@H](C)O)C(C)C ({Trp(6-Br)-CO}-TWWV-OMe) was tested, and the Activity (RAW264.7 [1]) was “inactive”, the Activity (TE-1) was “inactive” and the Activity (Staphylococcus aureus) was “inactive”. For the same compound, the Activity (Bacillus subtilis) was “inactive”, the Activity (MCF7) was “inactive” and the Activity 5637 was “inactive”. The Activity (Escherichia coli) was “inactive”, the Activity (CAL-62) was “inactive” and the Activity (A-375) was “inactive”. The Activity (DU-145) was “inactive”, the Activity (HeLa) was “inactive” and the Activity (A673) was “inactive”. For the same compound, the Activity (786-0) was “inactive”, the Activity (HOS) was “inactive” and the Activity (L02) was “Non-toxic”. The Activity (GBC-SD) was “inactive”, the Activity (RAW264.7 [2]) was “inactive” and the Activity (PaTu 8988t) was “inactive”. For the same compound, the Activity (HCT-116) was “inactive”, the Activity (A549) was “inactive” and the Activity (MKN-45) was “inactive”. The Activity (K562) was “inactive”, the Activity (SF-126) was “inactive” and the Activity (HepG2) was “inactive”.
In the case of COC(=O)[C@@H](NC(=O)[C@H](Cc1c[nH]c2ccccc12)NC(=O)[C@H](Cc1c[nH]c2ccccc12)NC(=O)[C@@H](NC(=O)N[C@@H](Cc1c[nH]c2ccccc12)C(=O)O)[C@@H](C)O)C(C)C ({Trp-CO}-TWWV-OMe), the Activity (RAW264.7 [1]) is reported as “inactive”, the Activity (TE-1) is reported as “inactive” and the Activity (Staphylococcus aureus) is reported as “inactive”. The Activity (Bacillus subtilis) was “inactive”, the Activity (MCF7) was “inactive” and the Activity 5637 was “inactive”. The Activity (Escherichia coli) was “inactive”, the Activity (CAL-62) was “inactive” and the Activity (A-375) was “inactive”. The Activity (DU-145) was “inactive”, the Activity (HeLa) was “inactive” and the Activity (A673) was “inactive”. For the same compound, the Activity (786-0) was “inactive”, the Activity (HOS) was “inactive” and the Activity (L02) was “Non-toxic”. For the same compound, the Activity (GBC-SD) was “inactive”, the Activity (RAW264.7 [2]) was “inactive” and the Activity (PaTu 8988t) was “inactive”. For the same compound, the Activity (HCT-116) was “inactive”, the Activity (A549) was “inactive” and the Activity (MKN-45) was “inactive”. For the same compound, the Activity (K562) was “inactive”, the Activity (SF-126) was “inactive” and the Activity (HepG2) was “inactive”.

From ChEMBL document CHEMBL6078675, “Discovery of Ureido-Containing Alteropeptilides and Intramolecular Cyclized Alteramides in Pseudoalteromonas flavipulchra S16 by Promoter Engineering of Cryptic Biosynthetic Gene Clusters” (J Nat Prod, 2024)
